US20100048545A1, “Compounds and Compositions for Use in the Prevention and Treatment of Disorders of Fat Metabolism and Obesity” (INNODIA INC., priority 2006, published 2010)

Tests used:
[1] = system: diet induced obese (DIO) animals; assay: Fixed dose of 4-hydroxyisoleucine in diet induced obese (DIO) animals, 21 days; type: in vivo, C57BL/6 mice; conditions: for Significance vs controls (P; body weight and body weight gain): 2 way ANOVA, Bonferroni
Method: C57BL/6 mice were fed a high fat diet (60% fat) for 6 weeks. […] This regime was continued for the remaining 21 day period and the dose given was not adjusted as the mice lost body weight. This method of dosing was designed to mimic the human situation when the quantity of drug given is not adjusted with progressive body weight loss. […] Statistical analysis of the data was performed using a 2 way ANOVA followed by Bonferroni comparisons. Food intake was measured daily and then combined over a 7 day period to calculate total consumption during each week of drug administration.

ob/ob mouse = assay: Body weight gain and food consumption of ob/ob mice, 56 days; type: in vivo; conditions: 100 mg/kg twice daily
From the text: The objective of this study was to evaluate the effect of chronic administration of 4-hydroxyisoleucine (4-OH, compound 14a) on food consumption and body weight gain in a genetic model of obesity, the ob/ob mouse. Body weight gain and food consumption were monitored for 1 week prior to the commencement of treatment, and then for the 56 days of treatment.
A total of 16 animals were used in the study. The animals were distributed into 2 groups (1 treated, 1 control group, all on standard chow). Each group was composed of 8 animals. The mice were randomized according to body weight values.
For the eight weeks of treatment, the test agent was dissolved in reverse osmosis water. 4-hydroxyisoleucine was aliquoted and kept at 4° C. Control animals received reverse osmosis water twice daily (group 1). Mice from group 2 were treated twice daily with 4-OH at 100 mg/kg. All groups were treated by oral gavage. Treatment commenced on Day 0 and ended on Day 56 (FIGS. 21A and 21B). Food consumption was measured daily and averaged on a weekly basis beginning one week before the start of treatment as shown in FIG. 21B.

[2] = system: Wistar rat model of diet-induced obesity; assay: Food consumption, weight gain and plasma triglycerides in Wistar rat model of diet-induced obesity, 28 days; type: in vivo, Wistar rats; conditions: for triglycerides plasma levels: 28 days
From the text: A total of 60 animals were used in the study. The animals were distributed into 6 groups; 1 group was fed standard chow, 1 group was fed a high fat, high sucrose (HFHS) diet with 28 days treatment, 1 untreated control group was fed a HFHS diet, and 1 untreated group was fed a HFHS diet, but with caloric intake restricted to match the caloric intake of the 4-OH treated animals (pair-fed animals). A fifth group was fed a high fat, high sucrose (HFHS) diet with 28 days treatment and received an acute oral administration of 4-OH just prior to experimentation on Day 29 of the study, and a sixth group was fed a HFHS diet, but with caloric intake restricted to match the caloric intake of the 4-OH treated animals receiving an acute oral administration of 4-OH on Day 29 of the study (pair-fed animals). Each group was composed of 10 animals. […] Body weights were measured once weekly from week 1 to week 4 of the study. For the four weeks of treatment, the test article 4-OH was dissolved in reverse osmosis water. 4-OH aliquoted and kept at 4° C. […] Untreated animals received water twice daily.

white adipocytes = assay: Release and uptake of free fatty acids by ex vivo cultured white adipocytes of treated rats; type: cell-based, Wistar rats
From the text: A total of 60 animals were used in the study. The animals were distributed into 6 groups; 1 group was fed standard chow, 1 group was fed a high fat, high sucrose (HFHS) diet with 28 days treatment, 1 untreated control group was fed a HFHS diet, and 1 untreated group was fed a HFHS diet, but with caloric intake restricted to match the caloric intake of the 4-OH treated animals (pair-fed animals). A fifth group was fed a high fat, high sucrose (HFHS) diet with 28 days treatment and received an acute oral administration of 4-OH just prior to experimentation on Day 29 of the study, and a sixth group was fed a HFHS diet, but with caloric intake restricted to match the caloric intake of the 4-OH treated animals receiving an acute oral administration of 4-OH on Day 29 of the study (pair-fed animals). Each group was composed of 10 animals. […] Body weights were measured once weekly from week 1 to week 4 of the study. The white adipose tissues of non-treated and treated rats were collected and cultured ex vivo. After 2 hours of culture, the relative release and uptake of free fatty acids by the adipocytes was measured in absence or presence of insulin, and standardized on the basis of DNA content of the cultures.

HSL = assay: RT-PCR gene expression in adipocytes of treated rats: HSL; type: in vivo
Method: (§1) As the ex vivo studies on adipocytes indicated the lipolytic effect of drug was due to chronic exposure (see previous example), a role in gene regulation was assessed. RT-PCR was used to assess the expression of genes in the adipocytes from treated and control animals.

FABP4/ap2 = assay: RT-PCR gene expression in adipocytes of treated rats: FABP4/ap2; type: in vivo
Method: as §1

[3] = system: Diet Induced Obesity (DIO)-Mice; type: in vivo
Method: A total of 40 animals were used in the study. The animals were distributed into 5 groups (4 treated, 1 control group, all on high fat diet). Each group was composed of 8 animals.
4-OH was aliquoted and kept at 4° C. […] Mice from groups 4 and 5 were treated twice daily with 50 and 100 mg/kg of compound 65a. All groups were treated by oral gavage. Treatment commenced on Day 0 and ended on Day 7 (FIG. 37A). Body weights were measured daily.

[4] = HFHS diet, treated for 4 weeks (28 days)

## C[C@@H]([C@H](C)O)[C@H](N)C(=O)O [Compound 14a, (2S,3R,4S)-4-Hydroxyisoleucine]
[1]; 75 mg/kg, Days 7 to 21
  Significance vs controls (P; body weight and body weight gain): P < 0.05
[1]; 100 mg/kg, Days 7 to 21
  Significance vs controls (P; body weight and body weight gain): P < 0.05
[1]; 125 mg/kg, Days 6 to 21
  Significance vs controls (P; body weight and body weight gain): P < 0.05
[1]; 150 mg/kg bid
  body weight plateau: approximately 30 gm
  body weight reduction: 13 gm
[1]; 150 mg/kg bid, day 21
  visual appearance of animals: visually indisingishable from lean mice of the same age
[1]; 150 mg/kg, Days 5 to 21
  Significance vs controls (P; body weight and body weight gain): P < 0.05
[1]; 50, 75, 100, 125 and 150 mg/kg bid, oral, fixed dose, 21 days
  body weight: dose-dependent reduction in body weight
[1]; end of treatment, epididymal fat (FIG. 17C)
  weight of fat tissues: concomitant reduction in the weight of fat tissues
[1]; highest doses, each of the 3 weeks, p<0.05
  food intake: reduction in food intake at the highest doses administered
ob/ob mouse
  food consumption: slight decrease in food consumption during the first three weeks of treatment
ob/ob mouse; Day 21 to Day 56, vs control group
  weight gain: significantly reduced
ob/ob mouse; course of treatment
  weight gain: moderation of weight gain was observed
ob/ob mouse; oral gavage, 56 days
  tolerability of treatment: well tolerated
[2]; 100 mg/kg twice daily, p<0.05
  triglycerides plasma levels: lower triglycerides plasma levels
  weight gain after 28 days of treatment: significantly decreased compared to the pair fed group and the HFHS control group
[2]; 100 mg/kg twice daily, p<0.05, listed as 4-OH
  triglycerides plasma levels: significantly decreased compared to the respective pair fed groups
[2]; 100 mg/kg twice daily, first week, vs HFHS control
  food consumption: slightly decreased
[2]; chronic 4-OH plus an acute oral administration on Day 29, p<0.05
  weight gain after 28 days of treatment: significantly decreased compared to the respective pair-fed group and the HFHS control group
White adipocytes; 2 hours of culture
  fatty acid uptake in presence of insulin: not significantly different across all groups
White adipocytes; 2 hours of culture, absence of insulin, vs pair-fed groups, p<0.01
  basal fatty acid release: significant increased basal fatty acid release
White adipocytes; vs pair fed groups and HFHS control, p<0.01
  insulin stimulated release of fatty acid: significantly increased
HSL
  expression of hormone sensitive lipase (HSL), increase: 1.3-1.4 times
HSL; [4]
  Increase (x times) in expression of HSL: 1.3 x times
FABP4/ap2
  expression of FABP4/ap2, increase: 1.3-1.4 times
FABP4/ap2; [4]
  Increase (x times) in expression of FABP4/ap2: 1.4 x times
[3]; 50 and 100 mg/kg twice daily oral gavage, one week
  tolerability of treatment: well tolerated
[3]; 50 and 100 mg/kg twice daily, first week of treatment
  weight gain: moderation of weight gain was observed
[3]; first week of treatment
  food consumption: slight decrease in food consumption
